Assay in all cases: NCI-60 cell line screen, 48 h
The test system of test [1] is HCT-15 colon.
Test [2] concerns OVCAR-3 ovarian.
Test [3] relates to MDA-MB-435.
Test [4] has as its system TK-10 renal.
Test [5] has as its system K-562 leukemia.
Test [6] has as its system SF-295 CNS.
Test [7] relates to SNB-19 CNS.
The subject of test [8] is MALME-3M melanoma.
Test [9] concerns NCI-H522 lung.
Test [10] deals with IGROV1 ovarian.

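Results reflect a 48-hour exposure of cells in 96-well plates to compound at five concentrations. GI50: concentration for 50% inhibition of growth. TGI is the concentration that stops growth completely.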

Consider `C[n+]1ccccc1/C1=c2\cc/c([nH]2)=C(\c2cccc[n+]2C)C2=N/C(=C(/c3cccc[n+]3C)C3C=CC(N3)/C(c3cccc[n+]3C)=C3/C=CC1=N3)C=C2`, for which the TGI in test [1], in test [2], in test [3], in test [4], in test [5] and in test [6] was over 100 µM in each case. Moreover, the TGI in [7], in test [8], in test [9] and in test [10] was over 100 µM each time.
Turning to `CN(C)c1ccc(/C=C(\NC(=O)c2ccccc2)C(=O)NC(Cc2c[nH]c3ccccc23)C(=O)O)cc1` (stereo not given), the TGI in [1], in [2], in test [3], in test [4], in [5] and in test [6] was over 100 µM each time. For the same compound, the TGI in [7], in test [8], in [9] and in test [10] was over 100 µM in each case.
`CC12CCC(CC1(Cl)Cl)C2` (stereo not given): the TGI in test [1], in [2], in test [3], in [4], in [5] and in [6] was over 100 µM in each case. Further, the TGI in test [7], in test [8], in test [9] and in test [10] was over 100 µM each time.
With `Cc1cc(NS(=O)(=O)c2ccc(Nc3c4ccccc4nc4c(C(=O)NCCO)cccc34)cc2)no1`, the TGI in test [1], in test [2], in test [3], in test [4], in [5] and in test [6] was over 100 µM throughout. The TGI in test [7] is over 100 µM; in [8], 70.4 µM; in test [9], 30.2 µM; in test [10], over 100 µM.
On to `O=[N+]([O-])C(C(Cl)=C(Cl)Cl)=C(n1cncn1)n1cncn1`, for which the TGI is 36.7 µM in [1]; 38.4 µM in test [2]; over 71.8 µM in [3]; over 100 µM in test [4]; over 100 µM in test [5]; over 100 µM in test [6]. The TGI in [7] was over 100 µM; in test [8], 31.2 µM; in test [9], 28.7 µM; in [10], 39.7 µM.
`Cc1ccc(C(=O)N/N=C2/C(=O)c3c4ccccc4cc4cccc2c34)cc1`: the TGI in test [1] was over 100 µM; in [2], 66.6 µM; in [3], over 73.4 µM; in test [4] it was over 100 µM; in [5] it was over 100 µM; in test [6], 43.2 µM. For the same compound, the TGI in test [7] was over 89.8 µM; in test [8], 44.4 µM; in [9] it was 59.8 µM; in [10], over 85.2 µM.
For the compound `O=C(C1OC1c1cccc([N+](=O)[O-])c1)C12CC3CC(CC(C3)C1)C2` (stereo not given), the TGI stood at 14.7 µM in [1]; 12.5 µM in test [2]; 12.2 µM in test [3]; 32.7 µM in test [4]; 13.2 µM in test [5]; 17.3 µM in [6]. For the same compound, the TGI in test [7] came out at 20.5 µM; in [8], 27.9 µM; in [9] it was 9.76 µM; in [10], 20.2 µM.
With `CC(C)=C[C@@H]1O[C@H](O)[C@@H]([C@H]2CC[C@@]3(C)[C@@H]4CC[C@H]5C(C)(C)C(=O)CC[C@@]56C[C@@]46CC[C@]23C)[C@@H]1O`, the TGI in test [1] stood at 36.1 µM; in test [2], 27.3 µM; in test [3] it was 41.7 µM; in test [4], 30.1 µM; in test [5] it was 38.4 µM; in test [6] it was 31.9 µM. The TGI was found to be 39.1 µM in [7], 37.7 µM in test [8], 30.3 µM in [9] and 35.4 µM in [10].
For `NC(N)=N/N=C/c1c(-c2cc([N+](=O)[O-])c(Cl)cc2Cl)nc2n1CCS2`, the TGI in test [1] was over 100 µM; in [2], over 100 µM; in test [3], 74.3 µM; in test [4], 45.9 µM; in [5], over 100 µM; in [6], 70.4 µM. In addition, the TGI in test [7] was 16.5 µM; in [8], 57.9 µM; in test [9], 51.5 µM; in test [10] it was 36.4 µM.
Regarding `Cc1cn(C2OC(CO)C(O)C2F)c(=O)[nH]c1=O` (stereo not given), the TGI in test [1], in test [2], in test [3], in [4], in test [5] and in test [6] was over 100 µM each time. The TGI in test [7], in test [8], in [9] and in test [10] was over 100 µM in each case.
Take `COc1ccccc1C1C(C#N)=C(N)Oc2cc(O)ccc21` (stereo not given): the GI50 in test [1] is 23.9 µM; in [2] it was 13 µM; in test [3], 4.1 µM; in [4], 27.6 µM; in test [5], 4.68 µM; in test [6], 16 µM. The GI50 is 21.3 µM in test [7], 21.6 µM in test [8], 3.15 µM in test [9] and 1.98 µM in test [10]. Moreover, the TGI in [1] is over 100 µM; in [2] it was 51.4 µM; in [3], 9.52 µM; in test [4], over 100 µM; in test [5] it was over 100 µM; in [6] it was 80.6 µM. In addition, the TGI is 99.8 µM in test [7], 88.6 µM in [8], 17.1 µM in [9] and 25.4 µM in test [10].
